ChEMBL document CHEMBL1201861, “Genomics of Drug Sensitity in Cancer screening data, Wellcome Trust Sanger Institute”

What follows are molecules tested on RO82-W-1 (assay: cells). Details: Homo sapiens, RO82-W-1.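 Further: growth inhibition of human RO82-W-1 cells, measured with a cell viability assay.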
Type: functional, cell-based, Homo sapiens
Description: SANGER: Inhibition of human RO82-W-1 cell growth in a cell viability assay.
`C=C(c1ccc(C(=O)O)cc1)c1cc2c(cc1C)C(C)(C)CCC2(C)C` [BEXAROTENE] showed an IC50 of over 8 µM.

Each molecule was assayed on HSC-2 (assay: cells). Details: Homo sapiens, HSC-2.
Type: functional, cell-based, Homo sapiens
Description: SANGER: Inhibition of human HSC-2 cell growth in a cell viability assay.
Work on `C=C(c1ccc(C(=O)O)cc1)c1cc2c(cc1C)C(C)(C)CCC2(C)C` [BEXAROTENE] yielded an IC50 of over 8 µM.

What follows are molecules tested on NCI-H596 (assay: cells). Details: Homo sapiens, NCI-H596.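 Further: growth inhibition of NCI-H596 cells, read out with a cell viability assay.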
Type: functional, cell-based, Homo sapiens
Description: SANGER: Inhibition of human NCI-H596 cell growth in a cell viability assay.
In the case of `C=C(c1ccc(C(=O)O)cc1)c1cc2c(cc1C)C(C)(C)CCC2(C)C` [BEXAROTENE], the IC50 is reported as over 8 µM.

Each molecule was assayed on NCI-H1573 (assay: cells). Details: Homo sapiens, NCI-H1573.
Type: functional, cell-based, Homo sapiens
Description: SANGER: Inhibition of human NCI-H1573 cell growth in a cell viability assay.
Molecule `C=C(c1ccc(C(=O)O)cc1)c1cc2c(cc1C)C(C)(C)CCC2(C)C` [BEXAROTENE] has an IC50 of over 8 µM.

What follows are molecules tested on LOUCY (assay: cells). Details: Homo sapiens, LOUCY.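 Further: growth inhibition of human LOUCY cells, read out with a cell viability assay.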
Type: functional, cell-based, Homo sapiens
Description: SANGER: Inhibition of human LOUCY cell growth in a cell viability assay.
`C=C(c1ccc(C(=O)O)cc1)c1cc2c(cc1C)C(C)(C)CCC2(C)C` [BEXAROTENE] was tested, and the IC50 was over 8 µM.

What follows are molecules tested on SAS (assay: cells). Details: Homo sapiens, SAS.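 Further: growth inhibition of SAS cells, read out with a cell viability assay.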
Type: functional, cell-based, Homo sapiens
Description: SANGER: Inhibition of human SAS cell growth in a cell viability assay.
`C=C(c1ccc(C(=O)O)cc1)c1cc2c(cc1C)C(C)(C)CCC2(C)C` [BEXAROTENE] showed an IC50 of over 8 µM.

What follows are molecules tested on RMG-I (assay: cells). Details: Homo sapiens, RMG-I.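 Further: growth inhibition of human RMG-I cells, read out with a cell viability assay.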
Type: functional, cell-based, Homo sapiens
Description: SANGER: Inhibition of human RMG-I cell growth in a cell viability assay.
In the case of `C=C(c1ccc(C(=O)O)cc1)c1cc2c(cc1C)C(C)(C)CCC2(C)C` [BEXAROTENE], the IC50 is reported as over 8 µM.

The molecules below were run on MFE-280 (assay: cells). Details: Homo sapiens, MFE-280.
Type: functional, cell-based, Homo sapiens
Description: SANGER: Inhibition of human MFE-280 cell growth in a cell viability assay.
`C=C(c1ccc(C(=O)O)cc1)c1cc2c(cc1C)C(C)(C)CCC2(C)C` [BEXAROTENE] gave an IC50 of over 8 µM.

What follows are molecules tested on DG-75 (assay: cells). Details: Homo sapiens, DG-75.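 Further: growth inhibition of DG-75 cells, read out with a cell viability assay.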
Type: functional, cell-based, Homo sapiens
Description: SANGER: Inhibition of human DG-75 cell growth in a cell viability assay.
With `C=C(c1ccc(C(=O)O)cc1)c1cc2c(cc1C)C(C)(C)CCC2(C)C` [BEXAROTENE] the IC50 was over 8 µM.

What follows are molecules tested on KARPAS-422 (assay: cells). Details: Homo sapiens, KARPAS-422.
Type: functional, cell-based, Homo sapiens
Description: SANGER: Inhibition of human KARPAS-422 cell growth in a cell viability assay.
In the case of `C=C(c1ccc(C(=O)O)cc1)c1cc2c(cc1C)C(C)(C)CCC2(C)C` [BEXAROTENE], the IC50 is reported as over 8 µM.

What follows are molecules tested on NCI-H661 (assay: cells). Details: Homo sapiens, NCI-H661.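 Further: cell viability assay read-out, IC50 being the concentration that inhibits growth of the cells by half.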
Type: functional, cell-based, Homo sapiens
Description: SANGER: Inhibition of human NCI-H661 cell growth in a cell viability assay.
For `C=C(c1ccc(C(=O)O)cc1)c1cc2c(cc1C)C(C)(C)CCC2(C)C` [BEXAROTENE], the IC50 was over 8 µM.

Each molecule was assayed on COR-L105 (assay: cells). Details: Homo sapiens, COR-L105.
Type: functional, cell-based, Homo sapiens
Description: SANGER: Inhibition of human COR-L105 cell growth in a cell viability assay.
In the case of `C=C(c1ccc(C(=O)O)cc1)c1cc2c(cc1C)C(C)(C)CCC2(C)C` [BEXAROTENE], the IC50 is reported as over 8 µM.

What follows are molecules tested on HT-1376 (assay: cells). Details: Homo sapiens, HT-1376.
Type: functional, cell-based, Homo sapiens
Description: SANGER: Inhibition of human HT-1376 cell growth in a cell viability assay.
Molecule `C=C(c1ccc(C(=O)O)cc1)c1cc2c(cc1C)C(C)(C)CCC2(C)C` [BEXAROTENE] has an IC50 of over 8 µM.

These molecules were tested on P12-Ichikawa (assay: cells). Details: Homo sapiens, P12-Ichikawa.
Type: functional, cell-based, Homo sapiens
Molecule `C=C(c1ccc(C(=O)O)cc1)c1cc2c(cc1C)C(C)(C)CCC2(C)C` [BEXAROTENE] has an IC50 of over 8 µM.

What follows are molecules tested on UMC-11 (assay: cells). Details: Homo sapiens, UMC-11.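 Further: growth inhibition of UMC-11 cells, read out with a cell viability assay.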
Type: functional, cell-based, Homo sapiens
Description: SANGER: Inhibition of human UMC-11 cell growth in a cell viability assay.
With `C=C(c1ccc(C(=O)O)cc1)c1cc2c(cc1C)C(C)(C)CCC2(C)C` [BEXAROTENE] the IC50 was over 8 µM.

These molecules were tested on SK-N-AS (assay: cells). Details: Homo sapiens, SK-N-AS.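 Further: growth inhibition of human SK-N-AS cells, measured with a cell viability assay.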
Type: functional, cell-based, Homo sapiens
Description: SANGER: Inhibition of human SK-N-AS cell growth in a cell viability assay.
`C=C(c1ccc(C(=O)O)cc1)c1cc2c(cc1C)C(C)(C)CCC2(C)C` [BEXAROTENE] showed an IC50 of over 8 µM.

What follows are molecules tested on BEN (assay: cells). Details: Homo sapiens, BEN.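 Further: growth inhibition of the BEN cell line, read out with a cell viability assay.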
Type: functional, cell-based, Homo sapiens
Description: SANGER: Inhibition of human BEN cell growth in a cell viability assay.
Work on `C=C(c1ccc(C(=O)O)cc1)c1cc2c(cc1C)C(C)(C)CCC2(C)C` [BEXAROTENE] yielded an IC50 of over 8 µM.

What follows are molecules tested on NCI-H2009 (assay: cells). Details: Homo sapiens, NCI-H2009.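 Further: cell viability assay measuring inhibition of NCI-H2009 cell growth.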
Type: functional, cell-based, Homo sapiens
Description: SANGER: Inhibition of human NCI-H2009 cell growth in a cell viability assay.
For `C=C(c1ccc(C(=O)O)cc1)c1cc2c(cc1C)C(C)(C)CCC2(C)C` [BEXAROTENE], the IC50 was over 8 µM.

What follows are molecules tested on AGS (assay: cells). Details: Homo sapiens, AGS.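 Further: growth inhibition of AGS cells, determined with a cell viability assay.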
Type: functional, cell-based, Homo sapiens
Description: SANGER: Inhibition of human AGS cell growth in a cell viability assay.
`C=C(c1ccc(C(=O)O)cc1)c1cc2c(cc1C)C(C)(C)CCC2(C)C` [BEXAROTENE] showed an IC50 of over 8 µM.

These molecules were tested on SNU-16 (assay: cells). Details: Homo sapiens, SNU-16.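 Further: growth inhibition of human SNU-16 cells, determined with a cell viability readout.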
Type: functional, cell-based, Homo sapiens
Description: SANGER: Inhibition of human NCI-SNU-16 cell growth in a cell viability assay.
With `C=C(c1ccc(C(=O)O)cc1)c1cc2c(cc1C)C(C)(C)CCC2(C)C` [BEXAROTENE] the IC50 was over 8 µM.

The molecules below were run on T84 (assay: cells). Details: Homo sapiens, T84.
Type: functional, cell-based, Homo sapiens
Description: SANGER: Inhibition of human T84 cell growth in a cell viability assay.
`C=C(c1ccc(C(=O)O)cc1)c1cc2c(cc1C)C(C)(C)CCC2(C)C` [BEXAROTENE] gave an IC50 of over 8 µM.

These molecules were tested on CAL-72 (assay: cells). Details: Homo sapiens, CAL-72.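 Further: cell viability assay measuring inhibition of proliferation in the CAL-72 cell line.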
Type: functional, cell-based, Homo sapiens
Description: SANGER: Inhibition of human CAL-72 cell growth in a cell viability assay.
`C=C(c1ccc(C(=O)O)cc1)c1cc2c(cc1C)C(C)(C)CCC2(C)C` [BEXAROTENE] gave an IC50 of over 8 µM.

These molecules were tested on HCT-15 (assay: cells). Details: Homo sapiens, HCT-15.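 Further: cell viability readout, IC50 reflecting suppression of HCT-15 cell growth.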
Type: functional, cell-based, Homo sapiens
Description: SANGER: Inhibition of human HCT-15 cell growth in a cell viability assay.
In the case of `C=C(c1ccc(C(=O)O)cc1)c1cc2c(cc1C)C(C)(C)CCC2(C)C` [BEXAROTENE], the IC50 is reported as over 8 µM.

Each molecule was assayed on NCI-H810 (assay: cells). Details: Homo sapiens, NCI-H810.
Type: functional, cell-based, Homo sapiens
Description: SANGER: Inhibition of human NCI-H810 cell growth in a cell viability assay.
`C=C(c1ccc(C(=O)O)cc1)c1cc2c(cc1C)C(C)(C)CCC2(C)C` [BEXAROTENE] was tested, and the IC50 was over 8 µM.

What follows are molecules tested on AU565 (assay: cells). Details: Homo sapiens, AU565.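 Further: cell viability assay measuring growth inhibition of human AU565 cells.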
Type: functional, cell-based, Homo sapiens
Description: SANGER: Inhibition of human AU565 cell growth in a cell viability assay.
In the case of `C=C(c1ccc(C(=O)O)cc1)c1cc2c(cc1C)C(C)(C)CCC2(C)C` [BEXAROTENE], the IC50 is reported as over 8 µM.

What follows are molecules tested on BFTC-905 (assay: cells). Details: Homo sapiens, BFTC-905.
Type: functional, cell-based, Homo sapiens
Description: SANGER: Inhibition of human BFTC-905 cell growth in a cell viability assay.
`C=C(c1ccc(C(=O)O)cc1)c1cc2c(cc1C)C(C)(C)CCC2(C)C` [BEXAROTENE] gave an IC50 of over 8 µM.

These molecules were tested on HT55 (assay: cells). Details: Homo sapiens, HT55.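 Further: cell viability readout measuring growth inhibition of human HT55 cells.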
Type: functional, cell-based, Homo sapiens
Description: SANGER: Inhibition of human HT55 cell growth in a cell viability assay.
Molecule `C=C(c1ccc(C(=O)O)cc1)c1cc2c(cc1C)C(C)(C)CCC2(C)C` [BEXAROTENE] has an IC50 of over 8 µM.

These molecules were tested on NCI-H441 (assay: cells). Details: Homo sapiens, NCI-H441.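 Further: growth inhibition of NCI-H441 cells, read out with a cell viability assay.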
Type: functional, cell-based, Homo sapiens
Description: SANGER: Inhibition of human NCI-H441 cell growth in a cell viability assay.
`C=C(c1ccc(C(=O)O)cc1)c1cc2c(cc1C)C(C)(C)CCC2(C)C` [BEXAROTENE] gave an IC50 of over 8 µM.

The molecules below were run on RPMI-7951 (assay: cells). Details: Homo sapiens, RPMI-7951.
Type: functional, cell-based, Homo sapiens
Description: SANGER: Inhibition of human RPMI-7951 cell growth in a cell viability assay.
Work on `C=C(c1ccc(C(=O)O)cc1)c1cc2c(cc1C)C(C)(C)CCC2(C)C` [BEXAROTENE] yielded an IC50 of over 8 µM.

These molecules were tested on NCI-H1792 (assay: cells). Details: Homo sapiens, NCI-H1792.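 Further: growth inhibition of human NCI-H1792 cells, read out as cell viability.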
Type: functional, cell-based, Homo sapiens
Description: SANGER: Inhibition of human NCI-H1792 cell growth in a cell viability assay.
`C=C(c1ccc(C(=O)O)cc1)c1cc2c(cc1C)C(C)(C)CCC2(C)C` [BEXAROTENE] was tested, and the IC50 was over 8 µM.

The molecules below were run on HT-29 (assay: cells). Details: Homo sapiens, HT-29.
Type: functional, cell-based, Homo sapiens
Description: SANGER: Inhibition of human HT-29 cell growth in a cell viability assay.
Molecule `C=C(c1ccc(C(=O)O)cc1)c1cc2c(cc1C)C(C)(C)CCC2(C)C` [BEXAROTENE] has an IC50 of over 8 µM.

What follows are molecules tested on NCI-H2342 (assay: cells). Details: Homo sapiens, NCI-H2342.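 Further: growth inhibition of the cancer cell line, determined with a cell viability assay.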
Type: functional, cell-based, Homo sapiens
Description: SANGER: Inhibition of human NCI-H2342 cell growth in a cell viability assay.
With `C=C(c1ccc(C(=O)O)cc1)c1cc2c(cc1C)C(C)(C)CCC2(C)C` [BEXAROTENE] the IC50 was over 8 µM.

Each molecule was assayed on NCI-H1993 (assay: cells). Details: Homo sapiens, NCI-H1993.
Type: functional, cell-based, Homo sapiens
Description: SANGER: Inhibition of human NCI-H1993 cell growth in a cell viability assay.
Work on `C=C(c1ccc(C(=O)O)cc1)c1cc2c(cc1C)C(C)(C)CCC2(C)C` [BEXAROTENE] yielded an IC50 of over 8 µM.

These molecules were tested on NCI-H1436 (assay: cells). Details: Homo sapiens, NCI-H1436.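 Further: growth suppression of human NCI-H1436 cells, determined with a cell viability readout.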
Type: functional, cell-based, Homo sapiens
Description: SANGER: Inhibition of human NCI-H1436 cell growth in a cell viability assay.
With `C=C(c1ccc(C(=O)O)cc1)c1cc2c(cc1C)C(C)(C)CCC2(C)C` [BEXAROTENE] the IC50 was over 8 µM.

Each molecule was assayed on HLE (assay: cells). Details: Homo sapiens, HLE.
Type: functional, cell-based, Homo sapiens
Description: SANGER: Inhibition of human HLE cell growth in a cell viability assay.
Molecule `C=C(c1ccc(C(=O)O)cc1)c1cc2c(cc1C)C(C)(C)CCC2(C)C` [BEXAROTENE] has an IC50 of over 8 µM.

These molecules were tested on SW1088 (assay: cells). Details: Homo sapiens, SW1088.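 Further: growth inhibition of human SW1088 cells, read out by a cell viability assay.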
Type: functional, cell-based, Homo sapiens
Description: SANGER: Inhibition of human SW1088 cell growth in a cell viability assay.
In the case of `C=C(c1ccc(C(=O)O)cc1)c1cc2c(cc1C)C(C)(C)CCC2(C)C` [BEXAROTENE], the IC50 is reported as over 8 µM.

Each molecule was assayed on UACC-62 (assay: cells). Details: Homo sapiens, UACC-62.
Type: functional, cell-based, Homo sapiens
Description: SANGER: Inhibition of human UACC-62 cell growth in a cell viability assay.
`C=C(c1ccc(C(=O)O)cc1)c1cc2c(cc1C)C(C)(C)CCC2(C)C` [BEXAROTENE] showed an IC50 of over 8 µM.

What follows are molecules tested on CAMA-1 (assay: cells). Details: Homo sapiens, CAMA-1.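 Further: growth inhibition of CAMA-1 cells, read out with a cell viability assay.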
Type: functional, cell-based, Homo sapiens
Description: SANGER: Inhibition of human CAMA-1 cell growth in a cell viability assay.
`C=C(c1ccc(C(=O)O)cc1)c1cc2c(cc1C)C(C)(C)CCC2(C)C` [BEXAROTENE] showed an IC50 of over 8 µM.

What follows are molecules tested on SW948 (assay: cells). Details: Homo sapiens, SW948.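 Further: growth inhibition of SW948 cells, read out with a cell viability assay.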
Type: functional, cell-based, Homo sapiens
Description: SANGER: Inhibition of human SW948 cell growth in a cell viability assay.
Molecule `C=C(c1ccc(C(=O)O)cc1)c1cc2c(cc1C)C(C)(C)CCC2(C)C` [BEXAROTENE] has an IC50 of over 8 µM.

Each molecule was assayed on NCI-H2122 (assay: cells). Details: Homo sapiens, NCI-H2122.
Type: functional, cell-based, Homo sapiens
Description: SANGER: Inhibition of human NCI-H2122 cell growth in a cell viability assay.
With `C=C(c1ccc(C(=O)O)cc1)c1cc2c(cc1C)C(C)(C)CCC2(C)C` [BEXAROTENE] the IC50 was 4.94 µM.

The molecules below were run on SK-LU-1 (assay: cells). Details: Homo sapiens, SK-LU-1.
Type: functional, cell-based, Homo sapiens
Description: SANGER: Inhibition of human SK-LU-1 cell growth in a cell viability assay.
`C=C(c1ccc(C(=O)O)cc1)c1cc2c(cc1C)C(C)(C)CCC2(C)C` [BEXAROTENE] gave an IC50 of over 8 µM.

These molecules were tested on BC1 cell line (assay: SANGER: Inhibition of human BC-1 cell growth in a cell viability assay.). Details: Homo sapiens, BC1.
Type: functional, cell-based
`C=C(c1ccc(C(=O)O)cc1)c1cc2c(cc1C)C(C)(C)CCC2(C)C` [BEXAROTENE] gave an IC50 of over 8 µM.

Each molecule was assayed on Calu-3 (assay: cells). Details: Homo sapiens, Calu-3.
Type: functional, cell-based, Homo sapiens
Description: SANGER: Inhibition of human Calu-3 cell growth in a cell viability assay.
`C=C(c1ccc(C(=O)O)cc1)c1cc2c(cc1C)C(C)(C)CCC2(C)C` [BEXAROTENE] gave an IC50 of over 8 µM.

The molecules below were run on NCI-H1694 (assay: cells). Details: Homo sapiens, NCI-H1694.
Type: functional, cell-based, Homo sapiens
Description: SANGER: Inhibition of human NCI-H1694 cell growth in a cell viability assay.
`C=C(c1ccc(C(=O)O)cc1)c1cc2c(cc1C)C(C)(C)CCC2(C)C` [BEXAROTENE] showed an IC50 of over 8 µM.

The molecules below were run on JEG-3 (assay: cells). Details: Homo sapiens, JEG-3.
Type: functional, cell-based, Homo sapiens
Description: SANGER: Inhibition of human JEG-3 cell growth in a cell viability assay.
`C=C(c1ccc(C(=O)O)cc1)c1cc2c(cc1C)C(C)(C)CCC2(C)C` [BEXAROTENE] gave an IC50 of over 8 µM.
